# Laboratory results reported in US20240034743A9, “TRICYCLIC COMPOUNDS AS EGFR INHIBITORS” (QILU PHARMACEUTICAL CO., LTD., priority 2020, published 2024).
# Like-named read-outs stand apart in the source and are kept apart here.
# How the values were obtained:
# [1] = target: EGFR WT (wild type EGFR) (Homo sapiens (Human), UniProt P00533); test: In vitro enzymatic TR-FRET (HTRF KinEASE-TK) kinase assay, EGFR WT; assay type: biochemical; details: kinase activity, TR-FRET; read-out: EGFR (WT) IC50
# Sequence of EGFR WT (wild type EGFR) (P00533 25-1210): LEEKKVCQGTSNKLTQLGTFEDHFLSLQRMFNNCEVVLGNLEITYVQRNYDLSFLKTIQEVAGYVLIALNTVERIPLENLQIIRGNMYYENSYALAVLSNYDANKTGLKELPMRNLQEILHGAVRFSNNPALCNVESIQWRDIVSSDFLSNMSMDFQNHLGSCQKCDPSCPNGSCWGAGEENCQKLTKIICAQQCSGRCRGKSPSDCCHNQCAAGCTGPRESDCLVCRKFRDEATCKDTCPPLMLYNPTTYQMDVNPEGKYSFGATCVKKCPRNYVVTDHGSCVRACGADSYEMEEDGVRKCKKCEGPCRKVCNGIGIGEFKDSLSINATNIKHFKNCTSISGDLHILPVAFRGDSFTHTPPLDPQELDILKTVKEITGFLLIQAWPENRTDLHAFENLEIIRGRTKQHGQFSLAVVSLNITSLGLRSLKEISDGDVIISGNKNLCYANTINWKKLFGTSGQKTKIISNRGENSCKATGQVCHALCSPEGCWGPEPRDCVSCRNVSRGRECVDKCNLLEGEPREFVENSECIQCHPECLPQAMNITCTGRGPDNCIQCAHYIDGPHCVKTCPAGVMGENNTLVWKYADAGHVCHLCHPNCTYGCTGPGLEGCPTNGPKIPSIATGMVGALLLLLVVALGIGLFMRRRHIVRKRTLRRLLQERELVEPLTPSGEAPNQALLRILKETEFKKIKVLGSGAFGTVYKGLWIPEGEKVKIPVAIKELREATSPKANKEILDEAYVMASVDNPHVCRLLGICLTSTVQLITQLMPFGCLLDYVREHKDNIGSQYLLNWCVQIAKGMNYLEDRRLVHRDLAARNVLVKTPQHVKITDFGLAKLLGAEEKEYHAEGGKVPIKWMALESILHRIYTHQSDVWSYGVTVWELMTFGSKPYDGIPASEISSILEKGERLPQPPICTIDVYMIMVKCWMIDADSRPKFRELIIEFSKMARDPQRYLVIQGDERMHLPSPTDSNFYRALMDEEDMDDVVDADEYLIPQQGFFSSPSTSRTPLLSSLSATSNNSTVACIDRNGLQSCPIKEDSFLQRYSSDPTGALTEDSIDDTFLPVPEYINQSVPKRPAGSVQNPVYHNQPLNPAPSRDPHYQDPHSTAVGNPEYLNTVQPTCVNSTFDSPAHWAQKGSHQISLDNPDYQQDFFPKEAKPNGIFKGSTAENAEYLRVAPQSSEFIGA
# Outline: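 Recombinant enzyme preincubated with compound 10 min at room temperature in kinase buffer with 5 mM MgCl2, 1 mM MnCl2, 1 mM DTT. Biotinylated TK substrate plus ATP then added for 40 min. HTRF detection (Sa-XL665, Cryptate antibody) for 1 h; IC50 from 665/615 nm ratio.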
# [2] = target: EGFR L858R/T790M/C797S (Homo sapiens (Human), UniProt P00533, C797S/L858R/T790M); test: In vitro enzymatic TR-FRET (HTRF KinEASE-TK) kinase assay, EGFR L858R/T790M/C797S; assay type: biochemical; details: kinase activity
# Sequence of EGFR L858R/T790M/C797S (P00533 25-1210 T790M/C797S/L858R): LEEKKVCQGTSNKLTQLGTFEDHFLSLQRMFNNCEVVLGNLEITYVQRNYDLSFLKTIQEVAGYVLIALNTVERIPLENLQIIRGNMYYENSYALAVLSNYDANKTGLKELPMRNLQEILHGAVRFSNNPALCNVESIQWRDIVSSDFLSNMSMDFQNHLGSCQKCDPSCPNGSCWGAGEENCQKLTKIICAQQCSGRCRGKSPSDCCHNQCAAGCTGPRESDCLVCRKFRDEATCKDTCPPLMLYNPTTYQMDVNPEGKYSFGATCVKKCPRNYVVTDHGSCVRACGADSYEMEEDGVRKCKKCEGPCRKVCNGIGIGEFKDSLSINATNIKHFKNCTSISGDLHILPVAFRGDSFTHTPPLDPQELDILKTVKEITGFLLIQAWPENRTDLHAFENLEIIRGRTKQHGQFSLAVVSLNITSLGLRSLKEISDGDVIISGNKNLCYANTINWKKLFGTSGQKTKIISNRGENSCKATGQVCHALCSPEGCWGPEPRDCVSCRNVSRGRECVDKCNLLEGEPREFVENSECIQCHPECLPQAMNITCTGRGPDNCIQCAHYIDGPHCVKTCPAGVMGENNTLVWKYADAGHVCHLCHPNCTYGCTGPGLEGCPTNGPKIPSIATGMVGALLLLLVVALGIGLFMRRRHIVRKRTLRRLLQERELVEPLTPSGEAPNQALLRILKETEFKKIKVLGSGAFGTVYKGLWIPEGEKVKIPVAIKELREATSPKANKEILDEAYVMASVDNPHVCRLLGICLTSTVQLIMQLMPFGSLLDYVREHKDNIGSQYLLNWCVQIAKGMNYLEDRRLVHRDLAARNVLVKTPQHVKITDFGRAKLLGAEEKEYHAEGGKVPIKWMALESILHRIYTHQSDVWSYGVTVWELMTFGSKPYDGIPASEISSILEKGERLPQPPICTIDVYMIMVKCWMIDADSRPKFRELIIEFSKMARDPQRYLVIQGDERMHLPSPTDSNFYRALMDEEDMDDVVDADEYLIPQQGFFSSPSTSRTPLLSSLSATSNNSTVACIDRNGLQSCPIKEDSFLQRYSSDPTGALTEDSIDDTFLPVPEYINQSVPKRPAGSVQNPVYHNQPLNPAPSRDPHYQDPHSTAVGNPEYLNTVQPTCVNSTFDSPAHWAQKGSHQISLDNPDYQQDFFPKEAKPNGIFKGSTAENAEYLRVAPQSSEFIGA
# Description: (I) In Vitro Enzymatic Experiment for EGFR WT and EGFR L858R/T790M/C797S
# In the assay, the inhibition effect of the compound on the kinase activity of EGFR WT (wild type EGFR) and EGFR L858R/T790M/C797S was tested by adopting a time-resolved fluorescence resonance energy transfer (TR-FRET) method, and half maximal inhibitory concentration IC50 of the compound on the kinase activity of EGFR was obtained.
# EGFR recombinase and EGFR L858R/T790M/C797S recombinase, purchased from Signalchem.
# HTRF KinEASE-TK kit, purchased from Cisbio.
# DTT, MnCl2, and MgCl2, purchased from Sigma.
# ATP, purchased from Promega.
# Brigatinib, purchased from Selleck.
# 1) 1× working solution was prepared: 5 mM MgCl2; 1 mM DTT; 1 mM MnCl2 and 1× kinase buffer (in kit).
# 2) […] of gradiently-diluted compound was transferred to a 384-well plate using Echo 550 (Labcyte).
# 3) 5 μL of 2× EGFR WT or EGFR L858R/T790M/C797S recombinase solution was added to the 384-well plate, and the plate was incubated at room temperature for 10 min.
# 4) 5 μL of 2× TK-substrate-biotin substrate solution (containing ATP) was added to the 384-well plate, and the plate was incubated at room temperature for 40 min.
# 5) 5 μL of assay solution containing Sa-XL 665 HTRF and 5 μL of TK-antibody-Cryptatewas were added to the plate, and the plate was incubated at room temperature for 1 h.
# 6) The fluorescence signal values at 615 nm and 665 nm were measured for each well using an Envision microplate reader (PerkinElmer).
# 7) The ratio of fluorescence signal values at 665 nm and 615 nm was calculated for each well.
# 8) Data analysis was performed using GraphPad Prism software to give the IC50 for compounds.
# [3] = system: A431 cells (EGFR WT); test: A431 cell proliferation inhibition assay (CellTiter-Glo); assay type: cell-based
# Outline: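 Seeded cells grown 24 h, then exposed 72 h (37° C, 5% CO2) to graded compound dilutions at 0.1% DMSO final. Viability read by CellTiter-Glo luminescence after 30 min at room temperature; IC50 fitted from the dose curve.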
# [4] = system: Ba/F3_Del19/T790M/C797S cells; test: Ba/F3_Del19/T790M/C797S cell proliferation inhibition assay (CellTiter-Glo); assay type: cell-based
# Outline: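 Ba/F3 cells carrying EGFR Del19/T790M/C797S were seeded at 700 cells/well and exposed to serially diluted compound (0.1% DMSO final) for 72 h at 37° C. Viability was read by CellTiter-Glo luminescence to give IC50.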
# [5] = system: Ba/F3_L858R/T790M/C797S cells; test: Ba/F3_L858R/T790M/C797S cell proliferation inhibition assay (CellTiter-Glo); assay type: cell-based
# Outline: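 Ba/F3 cells engineered to carry EGFR L858R/T790M/C797S, seeded at 700 cells/well, exposed to serially diluted compound (0.1% DMSO final) for 72 h at 37 °C, 5% CO2. Viability read by CellTiter-Glo luminescence after 30 min at room temperature; IC50 from dose-response fit.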
# [6] = cell proliferation, 72 h, CellTiter-Glo, read-out: A431 EGFR WT IC50
# [7] = cell proliferation, 72 h, CellTiter-Glo, read-out: Ba/F3 (Del19/T790M/C797S) IC50
# [8] = cell proliferation, 72 h, CellTiter-Glo, read-out: Ba/F3 (L858R/T790M/C797S) IC50
# [9] = Homo sapiens, A-431, cell proliferation, 72 h, CellTiter-Glo, read-out: A431 EGFR WT IC50
# [10] = Mus musculus, BaF3, cell proliferation, 72 h, CellTiter-Glo, read-out: Ba/F3 (Del19/T790M/C797S) IC50
# [11] = Mus musculus, BaF3, cell proliferation, 72 h, CellTiter-Glo, read-out: Ba/F3 (L858R/T790M/C797S) IC50
Structure (SMILES),IC50 [1],IC50 [2],"IC50 [3, 6]","IC50 [4, 7]","IC50 [5, 8]","IC50 [3, 9]","IC50 [4, 10]","IC50 [5, 11]","IC50 ([3]; Homo sapiens, A-431, 72 h, read-out: A431 EGFR WT IC50(nM))","IC50 ([4]; Mus musculus, BaF3, 72 h, read-out: Ba/F3 (Del19/T790M/C797S) IC50(nM))","IC50 ([5]; Mus musculus, BaF3, 72 h, read-out: Ba/F3 (L858R/T790M/C797S) IC50(nM))"
"COc1cc2c(cc1Nc1ncc(Br)c(Nc3ccccc3P(C)(C)=O)n1)-c1cnn(C)c1CCN2[C@@H]1CCN(C)C[C@H]1F (single isomer, unassigned) [Compound 66A]",1 to 10 nM,< 1 nM,100 to 1000 nM,< 10 nM,10 to 50 nM,–,–,–,–,–,–
COc1cc2c(cc1Nc1ncc(C)c(Nc3ccc4nccnc4c3P(C)(C)=O)n1)-c1cnn(C)c1CCN2C [Compound 5],< 1 nM,< 1 nM,–,–,–,50 to 100 nM,< 10 nM,< 10 nM,–,–,–
COc1cc2c(cc1Nc1ncc(Br)c(Nc3ccc4nccnc4c3P(C)(C)=O)n1)-c1cnn(C)c1CCN2C1CN(C)C1 [Compound 10],< 1 nM,< 1 nM,–,–,–,10 to 50 nM,< 10 nM,< 10 nM,–,–,–
COc1cc2c(cc1Nc1ncc(F)c(Nc3ccccc3P(C)(C)=O)n1)-c1cnn(C)c1CCN2C [Compound 17],1 to 10 nM,1 to 10 nM,–,–,–,100 to 1000 nM,10 to 50 nM,50 to 100 nM,–,–,–
Cc1cnc(Nc2cc3c(cc2OC(C)C)N(C)CCc2c-3cnn2C)nc1Nc1ccccc1P(C)(C)=O [Compound 18],50 to 100 nM,1 to 10 nM,–,–,–,> 1000 nM,50 to 100 nM,100 to 1000 nM,–,–,–
COc1cc2c(cc1Nc1nccc(Nc3ccccc3P(C)(C)=O)n1)-c1cnn(C)c1CCN2C [Compound 22],10 to 50 nM,1 to 10 nM,–,–,–,> 1000 nM,10 to 50 nM,100 to 1000 nM,–,–,–
COc1cc2c(cc1Nc1ncc(C)c(Nc3ccccc3P(C)(C)=O)n1)-c1cnn(C)c1CCN2C#N [Compound 23],10 to 50 nM,1 to 10 nM,–,–,–,100 to 1000 nM,10 to 50 nM,50 to 100 nM,–,–,–
COc1cc2c(cc1Nc1ncc(C3CC3)c(Nc3ccccc3P(C)(C)=O)n1)-c1cnn(C)c1CCN2C [Compound 30],10 to 50 nM,< 1 nM,–,–,–,100 to 1000 nM,10 to 50 nM,50 to 100 nM,–,–,–
COc1ccc(Cn2ncc3c2CCN(C)c2cc(OC)c(Nc4ncc(Br)c(Nc5ccccc5P(C)(C)=O)n4)cc2-3)cc1 [Compound 34],50 to 100 nM,1 to 10 nM,–,–,–,> 1000 nM,10 to 50 nM,10 to 50 nM,–,–,–
COc1cc2c(cc1Nc1ncc(Br)c(Nc3ccc4nccnc4c3NS(C)(=O)=O)n1)-c1cnn(C)c1CCN2C [Compound 35],< 1 nM,< 1 nM,–,–,–,100 to 1000 nM,< 10 nM,10 to 50 nM,–,–,–
COc1cc2c(cc1Nc1ncc(Cl)c(Nc3ccccc3P(C)(C)=O)n1)-c1cnn(C)c1CCN2C(C)C [Compound 45],1 to 10 nM,< 1 nM,–,–,–,100 to 1000 nM,< 10 nM,10 to 50 nM,–,–,–
COc1ccc(CN2Cc3cc(OC)c(Nc4ncc(Br)c(Nc5ccc6nccnc6c5P(C)(C)=O)n4)cc3-c3cnn(C)c3C2)c(OC)c1 [Compound 57],50 to 100 nM,1 to 10 nM,–,–,–,100 to 1000 nM,10 to 50 nM,50 to 100 nM,–,–,–
COc1nc2c(cc1Nc1ncc(Br)c(Nc3ccc4nccnc4c3P(C)(C)=O)n1)-c1cnn(C)c1CCN2C(C)C [Compound 82],1 to 10 nM,1 to 10 nM,–,–,–,–,–,–,> 1000 nM,10 to 50 nM,10 to 50 nM

# Second part, led by results:
IC50 [1],IC50 [2],"IC50 [3, 6]","IC50 [4, 7]","IC50 [5, 8]","IC50 [3, 9]","IC50 [4, 10]","IC50 [5, 11]",Structure (SMILES),"IC50 ([3]; Homo sapiens, A-431, 72 h, read-out: A431 EGFR WT IC50(nM))","IC50 ([4]; Mus musculus, BaF3, 72 h, read-out: Ba/F3 (Del19/T790M/C797S) IC50(nM))","IC50 ([5]; Mus musculus, BaF3, 72 h, read-out: Ba/F3 (L858R/T790M/C797S) IC50(nM))"
1 to 10 nM,< 1 nM,100 to 1000 nM,< 10 nM,10 to 50 nM,–,–,–,"COc1cc2c(cc1Nc1ncc(Br)c(Nc3ccccc3P(C)(C)=O)n1)-c1cnn(C)c1CCN2[C@H]1CCN(C)C[C@@H]1F (single isomer, unassigned) [Compound 66B]",–,–,–
< 1 nM,< 1 nM,50 to 100 nM,< 10 nM,< 10 nM,–,–,–,COc1cc2c(cc1Nc1ncc(Br)c(Nc3ccc4nccnc4c3P(C)(C)=O)n1)-c1cnn(C)c1CCN2C1CCN(C)C[C@@H]1F (stereo partly shown) [Compound 68],–,–,–
1 to 10 nM,< 1 nM,100 to 1000 nM,< 10 nM,10 to 50 nM,–,–,–,COc1cc2c(cc1Nc1ncc(Br)c(Nc3ccccc3P(C)(C)=O)n1)-c1cnn(C3COC3)c1CCN2C(C)C [Compound 77A],–,–,–
100 to 1000 nM,1 to 10 nM,100 to 1000 nM,50 to 100 nM,50 to 100 nM,–,–,–,COc1cc2c(cc1Nc1ncc(Br)c(Nc3ccccc3P(C)(C)=O)n1)-c1cn(C3COC3)nc1CCN2C(C)C [Compound 77B],–,–,–
1 to 10 nM,< 1 nM,–,–,–,100 to 1000 nM,< 10 nM,10 to 50 nM,COc1cc2c(cc1Nc1ncc(Br)c(Nc3ccccc3P(C)(C)=O)n1)-c1cnn(C)c1CCC2N(C)C (stereo not shown) [Compound 78],–,–,–
1 to 10 nM,< 1 nM,–,–,–,100 to 1000 nM,< 10 nM,< 10 nM,COc1nc2c(cc1Nc1ncc(Br)c(Nc3ccc4nccnc4c3P(C)(C)=O)n1)-c1cnn(C)c1CCN2C [Compound 80],–,–,–
1 to 10 nM,< 1 nM,–,–,–,100 to 1000 nM,< 10 nM,10 to 50 nM,COc1cc2c(cc1Nc1ncc(Br)c(Nc3cccnc3P(C)(C)=O)n1)-c1cnn(C)c1CCN2C(C)C [Compound 83],–,–,–
1 to 10 nM,1 to 10 nM,–,–,–,100 to 1000 nM,< 10 nM,10 to 50 nM,COc1nc2c(cc1Nc1ncc(Br)c(Nc3ccc4nccnc4c3NS(C)(=O)=O)n1)-c1cnn(C)c1CCN2C(C)C [Compound 86],–,–,–
< 1 nM,< 1 nM,–,–,–,100 to 1000 nM,< 10 nM,10 to 50 nM,COc1cc2c(cc1Nc1ncc(Br)c(Nc3ccc4nccnc4c3P3(=O)CCN(C)CC3)n1)-c1cnn(C)c1CCN2C(C)C [Compound 91],–,–,–
50 to 100 nM,1 to 10 nM,–,–,–,100 to 1000 nM,10 to 50 nM,10 to 50 nM,COc1cc2c(cc1Nc1ncc(Br)c(Nc3ccccc3P(C)(C)=O)n1)-c1cccnc1CCN2C [Compound 99],–,–,–
10 to 50 nM,< 1 nM,–,–,–,> 1000 nM,50 to 100 nM,100 to 1000 nM,COc1cc2c(cc1Nc1nccc(Nc3ccccc3P(C)(C)=O)n1)-c1cnn(C)c1CCN2C(C)C [Compound 102],–,–,–
< 1 nM,< 1 nM,–,–,–,100 to 1000 nM,< 10 nM,< 10 nM,COc1nc2c(cc1Nc1ncc(Br)c(Nc3ccc4nccnc4c3NS(C)(=O)=O)n1)-c1cnn(C)c1CCN2C [Compound 107],–,–,–
10 to 50 nM,< 1 nM,–,–,–,100 to 1000 nM,< 10 nM,10 to 50 nM,COc1cc2c(cc1Nc1ncc(Br)c(Nc3ccc4nccnc4c3P(C)(C)=O)n1)-c1cccnc1CCN2C [Compound 108],–,–,–
–,1 to 10 nM,–,–,–,> 1000 nM,< 10 nM,10 to 50 nM,COc1cc2c(cc1Nc1ncc(Br)c(Nc3ccc4nccnc4c3C(N)=O)n1)-c1cnn(C)c1CCN2C(C)C [Compound 115],–,–,–
50 to 100 nM,1 to 10 nM,–,–,–,100 to 1000 nM,10 to 50 nM,50 to 100 nM,COc1cc2c(cc1Nc1ncc(Br)c(Nc3ccc4nccnc4c3NS(C)(=O)=O)n1)-c1cccnc1CCN2C(C)C [Compound 116],–,–,–
